Measured values from ChEMBL document CHEMBL1129946, “New esters of 4-amino-5-chloro-2-methoxybenzoic acid as potent agonists and antagonists for 5-HT4 receptors” (J Med Chem, 1997).

Tests used:
[1] = biological target: T1, 5-hydroxytryptamine receptor 4 (Cavia porcellus, UniProt O70528); assay: 5-hydroxytryptamine 4 receptor agonist activity, concentration which gave 50% increase in the response to electrically-stimulated myenteric plexus and longitudinal muscle of the guinea pig ileum; format: functional, tissue-based
[2] = biological target: 5-hydroxytryptamine receptor 4 (Rattus norvegicus, UniProt Q62758); assay: Binding affinity towards 5-hydroxytryptamine 4 receptor was determined in rat striatal membranes using [3H]GR-113808 as radioligand; format: cell membranes, Striatum, Membrane
[3] = biological target: T1, 5-hydroxytryptamine receptor 4
[4] = biological target: T1, 5-hydroxytryptamine receptor 4; assay: 5-hydroxytryptamine 4 receptor antagonist activity, concentration which gave 50% reduction of the 5-HT-induced contractions in the guinea pig ileum; format: functional, tissue-based
[5] = biological target: 5-hydroxytryptamine receptor 4 (Cavia porcellus) (UniProt O70528); assay: 5-hydroxytryptamine 4 receptor agonist activity is expressed as percent of the maximum 5-HT response; format: functional
[6] = biological target: T2, Serotonin 3 (5-HT3) receptor (Rattus norvegicus, UniProt P35563+Q9JJ16); assay: Binding affinity was measured on 5-hydroxytryptamine 3 receptor using [3H]-BRL 43694 as radioligand in rat posterior cortex.
T2 sequence (P35563 whole entry): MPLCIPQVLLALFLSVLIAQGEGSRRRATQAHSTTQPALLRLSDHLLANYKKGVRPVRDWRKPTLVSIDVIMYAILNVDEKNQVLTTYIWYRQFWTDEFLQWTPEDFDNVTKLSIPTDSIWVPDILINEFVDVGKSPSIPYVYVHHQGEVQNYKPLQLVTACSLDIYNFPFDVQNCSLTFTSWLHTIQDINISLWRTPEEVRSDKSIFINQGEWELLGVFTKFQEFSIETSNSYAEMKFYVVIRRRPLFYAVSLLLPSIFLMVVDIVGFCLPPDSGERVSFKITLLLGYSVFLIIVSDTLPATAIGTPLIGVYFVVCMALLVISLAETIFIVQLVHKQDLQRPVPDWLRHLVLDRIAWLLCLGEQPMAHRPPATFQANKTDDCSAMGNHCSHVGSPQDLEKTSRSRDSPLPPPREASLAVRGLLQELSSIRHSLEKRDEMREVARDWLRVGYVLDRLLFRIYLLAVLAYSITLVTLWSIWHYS
T2 sequence (Q9JJ16 whole entry): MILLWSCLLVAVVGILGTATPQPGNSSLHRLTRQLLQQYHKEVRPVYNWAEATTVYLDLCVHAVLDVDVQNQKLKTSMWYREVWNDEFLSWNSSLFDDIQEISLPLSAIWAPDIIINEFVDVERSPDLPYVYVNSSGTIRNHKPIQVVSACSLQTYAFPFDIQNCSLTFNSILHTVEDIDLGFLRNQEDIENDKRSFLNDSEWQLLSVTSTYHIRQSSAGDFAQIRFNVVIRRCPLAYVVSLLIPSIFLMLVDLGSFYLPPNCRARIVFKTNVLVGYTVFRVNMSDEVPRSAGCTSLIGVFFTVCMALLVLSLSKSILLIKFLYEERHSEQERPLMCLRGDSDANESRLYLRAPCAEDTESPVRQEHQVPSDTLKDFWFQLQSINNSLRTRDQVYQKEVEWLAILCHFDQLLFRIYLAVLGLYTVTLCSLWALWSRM

[7] = biological target: T1, 5-hydroxytryptamine receptor 4; assay: 5-hydroxytryptamine 4 receptor antagonist activity, concentration which gave 50% reduction of the 5-HT-induced contractions in the guinea pig ileum; Inactive up to 10E-5 M; format: functional, tissue-based
[8] = biological target: T2, Serotonin 3 (5-HT3) receptor; assay: Binding affinity was measured on 5-hydroxytryptamine 3 receptor using [3H]-BRL 43694 as radioligand in rat posterior cortex

Chain of 5-hydroxytryptamine receptor 4 (Rattus norvegicus, UniProt Q62758) (Q62758 whole entry): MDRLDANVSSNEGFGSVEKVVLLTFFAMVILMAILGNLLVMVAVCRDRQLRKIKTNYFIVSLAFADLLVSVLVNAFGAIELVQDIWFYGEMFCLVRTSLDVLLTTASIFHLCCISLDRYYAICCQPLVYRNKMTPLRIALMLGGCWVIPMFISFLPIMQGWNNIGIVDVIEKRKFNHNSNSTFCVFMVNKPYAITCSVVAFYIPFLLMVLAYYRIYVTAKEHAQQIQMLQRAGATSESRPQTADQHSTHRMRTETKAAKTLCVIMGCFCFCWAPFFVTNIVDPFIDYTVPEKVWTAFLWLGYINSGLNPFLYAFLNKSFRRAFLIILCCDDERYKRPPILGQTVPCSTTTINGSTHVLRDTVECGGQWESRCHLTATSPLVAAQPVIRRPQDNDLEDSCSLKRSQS
T1 sequence (O70528 whole entry): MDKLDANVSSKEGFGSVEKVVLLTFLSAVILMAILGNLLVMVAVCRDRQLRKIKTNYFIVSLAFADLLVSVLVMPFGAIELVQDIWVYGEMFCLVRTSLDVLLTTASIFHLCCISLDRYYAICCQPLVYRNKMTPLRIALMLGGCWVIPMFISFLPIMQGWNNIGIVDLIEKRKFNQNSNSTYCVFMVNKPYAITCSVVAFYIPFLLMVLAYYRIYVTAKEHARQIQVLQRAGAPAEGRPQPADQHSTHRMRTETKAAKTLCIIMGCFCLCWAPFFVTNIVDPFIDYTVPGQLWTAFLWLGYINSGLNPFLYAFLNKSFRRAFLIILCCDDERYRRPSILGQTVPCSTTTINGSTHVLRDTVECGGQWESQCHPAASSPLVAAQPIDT
Chain of 5-hydroxytryptamine receptor 4 (Cavia porcellus) (O70528 whole entry): as above

Compound	EC50 [1] [nM]	Ki [2] [nM]	Activity [5] [%]	also measured
CC(C)n1c(=O)n(C(=O)NC2CC3CCC(C2)N3C)c2ccccc21 (centres undefined)	43	257		IC50 [3]: Not Active
COc1cc(N)c(Cl)cc1C(=O)OCC[N+]12CCC(CC1)CC2	5.3	6.03	78	IC50 [4]: ~20 nM
COc1cc(N)c(Cl)cc1C(=O)OC1CC2CCC(C1)N2C (centres undefined)			41	
COc1cc(N)c(Cl)cc1C(=O)OCCN1CCCC(O)C1 (stereo in doubt; 7j) [listing 1 of 2 here]			64	
COc1cc(N)c(Cl)cc1C(=O)OCCN1CCCC(O)C1 (stereo in doubt; 7k) [listing 1 of 2 here]	4	1		
COc1cc(N)c(Cl)cc1C(=O)NCCN(C)C		> 1000		
COc1cc(N)c(Cl)cc1C(=O)OCCN1CCCCC1C (centres undefined)	6	7.8	82	
COc1cc(N)c(Cl)cc1C(=O)OCCN1CCCCC1				Ki [6]: 730 nM
COc1cc(N)c(Cl)cc1C(=O)OCCN1CC(C)CC(C)C1 (stereo in doubt; 7h)		2.32		IC50 [4]: 13 nM; Ki [6]: > 1000 nM
COc1cc(N)c(Cl)cc1C(=O)OCCN1CCN(c2ccccc2)CC1				IC50 [4]: 100 nM
COc1cc(N)c(Cl)cc1C(=O)OCCN(C)C	180	47	60	IC50 [4]: 600 nM
COc1cc(N)c(Cl)cc1C(=O)OCCN1C2CCCC1CC2	40	9.3	63	
COc1cc(N)c(Cl)cc1C(=O)OCCN1CCC(C)CC1	3	4.08	57	
COc1cc(N)c(Cl)cc1C(=O)OCCN1CC(C)OC(C)C1 (centres undefined)		6.28		IC50 [4]: 300 nM; IC50 [3]: Not Active
COc1cc(N)c(Cl)cc1C(=O)OCCN1CCCC(O)C1 (stereo in doubt; 7l) [listing 1 of 2 here]	10	2		
COc1cc(N)c(Cl)cc1C(=O)N[C@@H]1CN2CCC1CC2	77		100	
COc1cc(N)c(Cl)cc1C(=O)OCCN1CCC(NC(C)=O)CC1	13	1.05	59	
COc1cc(N)c(Cl)cc1C(=O)OCCN1CCC(O)CC1	14	1.42	72	
COc1cc(N)c(Cl)cc1C(=O)OCCN1CCCC(C)(C)C1		1.72		IC50 [4]: 150 nM
COc1cc(N)c(Cl)cc1C(=O)OCCN1CC=CCC1	29	9.1	65	
COc1cc(N)c(Cl)cc1C(=O)OCCN1CCCCCC1	4.4	0.92	59	

Compound	EC50 [1] [nM]	Ki [2] [nM]	Activity [5] [%]	also measured
COc1cc(N)c(Cl)cc1C(=O)OCCN1CC(C)CC(C)C1 (stereo in doubt; 7g)		0.26		IC50 [4]: 11 nM; Ki [6]: > 1000 nM
COc1cc(N)c(Cl)cc1C(=O)OCCN1CCC(C(N)=O)CC1	19	1.43	65	
COc1cc(N)c(Cl)cc1C(=O)NC1CC2CCC(C1)N2C (centres undefined)		48.6		
COc1cc(N)c(Cl)cc1C(=O)OCCN1CCOCC1	113	35.6		IC50 [7]: Not Active
COc1cc(N)c(Cl)cc1C(=O)OCCCN1CCCCC1	30	28.1	52	
COc1cc(N)c(Cl)cc1C(=O)NCCN1CCCCC1	> 1000	135		IC50 [4]: > 1000 nM
COc1cc(N)c(Cl)cc1C(=O)OCCN1CCCC(O)C1 (stereo in doubt; 7k) [listing 2 of 2 here]			62	
COc1cc(N)c(Cl)cc1C(=O)OCCN1CCCC(C)C1 (centres undefined)	15	0.93	54	Ki [6]: > 1000 nM
COc1cc(N)c(Cl)cc1C(=O)OCCN1CCCC(O)C1 (stereo in doubt; 7j) [listing 2 of 2 here]	5	4.8		Ki [8]: > 1000 nM
CCN(CC)CCOC(=O)c1cc(Cl)c(N)cc1OC		5.5		
COc1cc(N)c(Cl)cc1C(=O)OCCN1C(C)CCCC1C (centres undefined)		39.5		
COc1cc(N)c(Cl)cc1C(=O)NCCN1CC(C)CC(C)C1 (centres undefined)	~930	103	80	
COc1cc(N)c(Cl)cc1C(=O)OCCN1CCCC(O)C1 (stereo in doubt; 7l) [listing 2 of 2 here]			61	
COc1cc(N)c(Cl)cc1C(=O)OCCN1CCCC1	40	5.35	50	IC50 [4]: 200 nM
NCCc1c[nH]c2ccc(O)cc12 [SEROTONIN]				IC50 [3]: Not Active
COc1cc(N)c(Cl)cc1C(=O)OCC[n+]1ccccc1	17	6.2		
COc1cc(N)c(Cl)cc1C(=O)OCCN1CC2CCC(CC2)C1	7.8	5.45	61	
COc1cc(N)c(Cl)cc1C(=O)N(C)CCN1CCCCC1	> 1000	> 1000		IC50 [4]: > 1000 nM
Cn1cc(C(=O)OCC2CCN(CCNS(C)(=O)=O)CC2)c2ccccc21		0.15		IC50 [4]: 13 nM
COc1cc(N)c(Cl)cc1C(=O)N[C@H]1CN2CCC1CC2 [(R)ZACOPRIDE]	166	1510	84	
